Holding throughout (experiment): DTP human tumour cell line panel, 48 h
Test [1] deals with K562.
Test [2] concerns SW-620.
Test [3] has as its system HT-29.
Test [4] deals with HOP-92.
For test [5], the system named is UACC-62.
For test [6], the system named is A498.
For test [7], the system named is OVCAR-3.
Test [8] relates to IGROV-1.
The test system of test [9] is ACHN.
Test [10] deals with EKVX.
The subject of test [11] is RXF 393.
Test [12] deals with HOP-62.
Test [13] deals with DLD-1.
Test [14] concerns OVCAR-5.
For test [15], the system named is UO-31.
Test [16] concerns RPMI-8226.
The test system of test [17] is SK-MEL-5.

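Where inhibition never reached the appropriate level, the endpoint shown equals the highest concentration tested. Otherwise, values were interpolated linearly from a five-concentration, 48-hour dose response in 96-well plates. Here, GI50 denotes the concentration required for 50% inhibition of growth.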 Activity calls are given as the source filed them. Rule as the data show it: active = GI50 up to about 1.1 µM and inactive = higher.

As for `N/C(=N\O)N/N=C/c1ccc(C(F)(F)F)cc1`, the GI50 was 16.9 µM (inactive) in [1]; 31 µM (inactive) in [2]; 17.9 µM (inactive) in [3]; 18.4 µM (inactive) in test [4]; 4.66 µM (inactive) in [5]; 17.1 µM (inactive) in [6]. The GI50 in test [7] was 13.5 µM (inactive); in test [8] it was 7.41 µM (inactive); in [9], 4.61 µM (inactive); in test [10] it was 4.23 µM (inactive); in test [11], 29.9 µM (inactive); in test [12], 15.5 µM (inactive). Also, the GI50 in test [13] is 24.7 µM (inactive).
As to `NC1=C(Br)C(=O)c2ncccc2C1=O`, the GI50 is 0.277 µM (active) in test [1]; 0.466 µM (active) in [2]; 1.69 µM (inactive) in test [3]; 1.45 µM (inactive) in [4]; 1.95 µM (inactive) in [14]; 0.232 µM (active) in [5]. Further, the GI50 in test [6] was 3.72 µM (inactive); in test [15], 0.316 µM (active); in [16], 0.942 µM (active); in [7], 1.09 µM (active); in test [17], 0.284 µM (active); in test [8] it was 1.11 µM (active). For the same molecule, the concentration for 50% growth inhibition (GI50) in test [9] is 0.406 µM (active); in test [10], 1.61 µM (inactive); in [11], 0.258 µM (active); in test [12] it was 0.632 µM (active); in test [13] it was 0.607 µM (active).
As to `COC1OC(CO)C(O)C(O)C1Br` (centres undefined), the GI50 in test [1], in test [2], in test [3], in test [4], in [14] and in [5] was > 100 µM (inactive) throughout. Further, the GI50 in test [6], in [16], in [7], in test [17], in test [8] and in test [9] was > 100 µM (inactive) throughout. The GI50 in [11], in test [12] and in [13] was > 100 µM (inactive) throughout.
Turning to `NC(=O)CCC(NC(=O)Cc1ccccc1)C(=O)O.NC(CCC(=O)NC(=O)Cc1ccccc1)C(=O)O` (centres undefined), the GI50 in [1], in test [2], in test [3], in test [4], in [14] and in test [5] was > 8130 µM (inactive) throughout. Moreover, the GI50 in test [6], in test [15], in test [16], in test [7], in [17] and in test [8] was > 8130 µM (inactive) each time. Further, the GI50 in test [10], in [11], in [12] and in test [13] was > 8130 µM (inactive) in each case.
For `COc1ccc2c3c(c(C(=O)c4ccccc4)oc13)CCC2`, the GI50 is > 100 µM (inactive) in [1]; > 100 µM (inactive) in test [2]; 79.4 µM (inactive) in test [3]; < 0.01 µM (active) in [4]; > 100 µM (inactive) in test [5]; > 100 µM (inactive) in test [6]. Besides, the GI50 in [16], in test [7], in test [17], in test [8], in test [9] and in test [10] was > 100 µM (inactive) in each case. Further, the GI50 in [11] is 17.5 µM (inactive); in test [12] it was > 100 µM (inactive); in test [13] it was > 100 µM (inactive).
In the case of `Cn1c(C2CC(C)(C)c3c2c2ccccc2n3C)cc2ccccc21` (centres undefined), the GI50 in test [1] was > 304 µM (inactive); in test [2] it was > 304 µM (inactive); in test [3], > 304 µM (inactive); in [4], 40.9 µM (inactive); in [14] it was > 304 µM (inactive); in [5] it was > 304 µM (inactive). Moreover, the GI50 is 118 µM (inactive) in test [16]; 64.6 µM (inactive) in [7]; > 304 µM (inactive) in test [17]; 225 µM (inactive) in test [8]; > 304 µM (inactive) in [9]; > 304 µM (inactive) in [10]. Also, the GI50 in test [11], in test [12] and in test [13] was > 304 µM (inactive) in each case.
Consider `CC(=O)n1ccc2c(Cl)ncnc21`, for which the GI50 in test [1], in test [2], in test [3], in test [4], in test [5] and in test [6] was > 100 µM (inactive) each time. The GI50 in test [16] was > 100 µM (inactive); in [7], > 100 µM (inactive); in [17], > 100 µM (inactive); in test [8] it was > 100 µM (inactive); in [9], > 100 µM (inactive); in [10] it was > 67.3 µM (inactive). Besides, the figures for the GI50 in test [11], in test [12] and in test [13] were 0.038 µM (active), > 100 µM (inactive) and > 100 µM (inactive), respectively.
On to `COc1ccc(/C(Cl)=C(\C=N/O)c2ccc(OC)c(OC)c2)cc1OC`, for which the GI50 in [1] is > 100 µM (inactive); in [2], > 100 µM (inactive); in test [3] it was > 100 µM (inactive); in test [4] it was 63.4 µM (inactive); in test [14], > 100 µM (inactive); in [5], > 100 µM (inactive). For the same molecule, the GI50 in test [6], in [15], in test [16], in test [7], in [17] and in test [8] was > 100 µM (inactive) throughout. Further, the GI50 in [9] is > 100 µM (inactive); in test [10] it was > 100 µM (inactive); in [11], > 100 µM (inactive); in test [12] it was 49.8 µM (inactive); in [13] it was > 100 µM (inactive).
Take `O=C1C2=C(c3ccccc31)C(c1ccc(F)cc1)N1C(=O)CCSC1=N2` (centres undefined): the GI50 in test [1] was > 100 µM (inactive); in test [2] it was > 100 µM (inactive); in [3], > 100 µM (inactive); in test [4], 24.7 µM (inactive); in [14], > 100 µM (inactive); in [5] it was 62.1 µM (inactive). Also, the GI50 is > 100 µM (inactive) in [6]; 39.9 µM (inactive) in test [15]; 49.2 µM (inactive) in test [16]; > 100 µM (inactive) in [7]; 60.5 µM (inactive) in test [17]; > 100 µM (inactive) in test [8]. The GI50 in test [9], in [10], in [12] and in test [13] was > 100 µM (inactive) throughout.
For the molecule `O=c1c2ccccc2c2c3c1cccc3c1cccc3c(=O)c4ccccc4c2c31`, the GI50 in test [1], in test [2], in [3], in [4], in test [14] and in test [5] was > 100 µM (inactive) throughout. The GI50 in [6], in [15], in [7], in test [17], in [8] and in test [9] was > 100 µM (inactive) each time. In addition, the GI50 in test [10], in test [11], in [12] and in [13] was > 100 µM (inactive) throughout.
As to `CC/C=C1\N=C(c2ccc(Cl)cc2)OC1=O`, the GI50 in test [1], in [2], in test [3], in test [4], in test [14] and in [5] was > 100 µM (inactive) each time. The GI50 in [6], in test [15], in [16], in test [7], in test [8] and in [9] was > 100 µM (inactive) in each case. For the same molecule, the GI50 in test [10], in test [11], in [12] and in test [13] was > 100 µM (inactive) each time.
With `O=C(/C=C/c1c(O)ccc2ccccc12)c1ccc([N+](=O)[O-])cc1`, the GI50 is > 49.4 µM (inactive) in [1]; 25.2 µM (inactive) in test [2]; 54.1 µM (inactive) in [3]; 16.1 µM (inactive) in [4]; > 100 µM (inactive) in test [14]; 17.4 µM (inactive) in test [5]. Further, the GI50 in [6] was > 100 µM (inactive); in test [15], > 43 µM (inactive); in test [16], 25.9 µM (inactive); in test [7], 17.3 µM (inactive); in [17], 19.4 µM (inactive); in test [8], > 60.8 µM (inactive). In addition, the GI50 in [9] is 22.1 µM (inactive); in [10] it was 41.9 µM (inactive); in test [11], 23.1 µM (inactive); in test [12], > 100 µM (inactive); in test [13] it was 18.7 µM (inactive).
For `COc1ccc(C2=NC(C)(C)CO2)cc1`, the GI50 in test [1], in [2], in [3], in test [4], in test [14] and in test [5] was > 100 µM (inactive) in each case. In addition, the GI50 in [6], in test [16], in test [7], in test [17], in test [8] and in test [9] was > 100 µM (inactive) in each case. The GI50 in test [10], in test [11], in [12] and in [13] was > 100 µM (inactive) each time.
